{"source": "patent US9849125B1", "about": "“Anti-overingestion dosage forms” (BANNER LIFE SCIENCES LLC, priority 2015, dated 2017)", "test": "In vitro dissolution of multiple capsules together in 0.1 N HCl (USP Apparatus II)", "format": "physicochemical", "method": "To test the anti-over ingestion properties of the pharmaceutical composition, multiple capsules were combined in a single reaction vessel and percentage of API released was measured. […] The in vitro dissolutions studies of dextromethorphan from Amberlite™ IRP69 from multiple capsules (1, 5, and 10) were carried out in 0.1 HCl with each 200 mg capsule containing 40 mg of the drug.\nAn additional experiment was performed to support the concept that the ceiling effect was not caused by solubility/sink limitation, but rather by retention by sequestering.\nNext, the possibility to gain the same sequestering effect using physical blend of drug with resin instead of drug resinate complex was explored.", "data": [{"smiles": "COc1ccc2c(c1)[C@]13CCCC[C@@H]1[C@H](C2)N(C)CC3", "note": "[dextromethorphan]", "values": [{"measurement": "release from 1 capsule (40 mg) vs 10 capsules (400 mg) without resin", "value": "dose proportional release"}]}]}
